# Literature values in PubChem BioAssay AID1259409 (Chemical Carcinogenesis Research Information System (CCRIS), 2018).
# Tested on: rodent chemically induced tumor inhibition, incidence and multiplicity
# Test: CCRIS tumor inhibitor studies
smiles,measurement,setting,value
C=CCSCC=C,"tumour outcome (control, treated, inhibition, significance)","Carcinogen: 4-(METHYLNITROSAMINO)-1-(3-PYRIDYL)-1-BUTANONE, 64091-91-4, Dose [Inhibitor]: 0, 200 MG/KG BW IN CORN OIL FOR 3 D PRIOR TO CARCINOGEN TREATMENT (STUDY DURATION: 16 WK), Route [Inhibitor]: ORAL, Species: MOUSE, Strain/Sex: STRAIN-A/FEMALE, Target Tissue: Type of Lesion: LUNG: TUMOR, Dose [Carcinogen]: 100 MG/KG BW ONCE, Promoter: NONE USED","100%, 38%, 62%, not calculated"
same,"tumour outcome (control, treated, inhibition, significance)","Carcinogen: 4-(METHYLNITROSAMINO)-1-(3-PYRIDYL)-1-BUTANONE, 64091-91-4, Dose [Inhibitor]: 0, 200 MG/KG/BW IN CORN OIL 1/D FOR 3 DAY PRIOR TO CARCINOGEN DOSE (STUDY DURATION: 16 WK), Route [Inhibitor]: ORAL, Species: MOUSE, Strain/Sex: STRAIN-A/FEMALE, Target Tissue: Type of Lesion: LUNG: TUMOR, Dose [Carcinogen]: 2 MG ONCE ADMINISTERED 2 HR POST LAST AGENT DOSE, Promoter: NONE USED","100%, 38%, 62%, p<0.05"
same,"tumour outcome (control, treated, inhibition, significance)","Carcinogen: 7,12-DIMETHYLBENZ[A]ANTHRACENE, 57-97-6, Dose [Inhibitor]: 0, 1.8 MMOL/KG BW IN CORN OIL 96, 48 AND 24 HR PRIOR TO CARCINOGEN TREATMENT (STUDY DURATION: 25 WK), Route [Inhibitor]: GAVAGE, Species: RAT, Strain/Sex: SPRAGUE-DAWLEY/FEMALE, Target Tissue: Type of Lesion: MAMMARY GLAND: ADENOCARCINOMA, Dose [Carcinogen]: 10 MG ONCE, Promoter: NONE USED","92%, 56%, 39%, p<0.05"
same,"tumour outcome (control, treated, inhibition, significance)","Carcinogen: ARISTOLOCHIC ACID, 313-67-7, Dose [Inhibitor]: 0, 150 MG/KG BW ADMINISTERED 4 HR PRIOR TO EACH CARCINOGEN DOSE 2/WK FOR 12 WK (STUDY DURATION: 46 WK), Route [Inhibitor]: GAVAGE, Species: RAT, Strain/Sex: BD-6/MALE, Target Tissue: Type of Lesion: FORESTOMACH: CARCINOMA OR SARCOMA, Dose [Carcinogen]: 10 MG/KG BW 2/WK FOR 12 WK, Promoter: NONE USED","9/20 (45%), 2/20 (10%), 78%, p<0.01"
same,"tumour outcome (control, treated, inhibition, significance)","Carcinogen: ARISTOLOCHIC ACID, 313-67-7, Dose [Inhibitor]: 0, 150 MG/KG BW ADMINISTERED 24 AND 4 HR PRIOR TO EACH CARCINOGEN DOSE FOR 12 WK (STUDY DURATION: 46 WK), Route [Inhibitor]: GAVAGE, Species: RAT, Strain/Sex: BD-6/MALE, Target Tissue: Type of Lesion: FORESTOMACH: CARCINOMA OR SARCOMA, Dose [Carcinogen]: 10 MG/KG BW 2/WK FOR 12 WK, Promoter: NONE USED","11/25 (44%), 0/20 (0%), 100%, p<0.001"
same,"tumour outcome (control, treated, inhibition, significance)","Carcinogen: BENZO[A]PYRENE [50-32-8], Dose [Inhibitor]: 0, 200 MG/KG BW IN TRIOCTANOIN 1 D AND 2 HR PRIOR TO CARCINOGEN DOSE (STUDY DURATION: 21 WK), Route [Inhibitor]: GAVAGE, Species: MOUSE, Strain/Sex: CD-1/FEMALE, Target Tissue: Type of Lesion: SKIN: PAPILLOMA, Dose [Carcinogen]: 0.3 UMOL IN 0.2 ML ACETONE ONCE, Promoter: 12-O-TETRADECANOYLPHORBOL-13-ACETATE [16561-29-8]","92%, 73%, 21%, not calculated"
same,"tumour outcome (control, treated, inhibition, significance)","Carcinogen: BENZO[A]PYRENE [50-32-8], Dose [Inhibitor]: 200 MG/KG IN 10 µL TRIOCTANOIN ONCE 1 D AND 2 HR PRIOR TO CARCINOGEN DOSE (STUDY DURATION: 21 WK), Route [Inhibitor]: GAVAGE, Species: MOUSE, Strain/Sex: CD-1/FEMALE, Target Tissue: Type of Lesion: SKIN: PAPILLOMA, Dose [Carcinogen]: 0.3 UMOL IN 0.2 ML ACETONE ONCE (STUDY DURATION: 21 WK), Promoter: 12-O-TETRADECANOYLPHORBOL-13-ACETATE [16561-29-8]","92%, 74%, 20%, not calculated"
same,"tumour outcome (control, treated, inhibition, significance)","Carcinogen: DIETHYLNITROSAMINE, 55-18-5, Dose [Inhibitor]: 0, 150 MG/KG BW BY INTRAPERITONEAL INJECTION ON DAYS 13, 14 AND 15 OF AGE THEN 1 G/KG DIET FROM 21 TO 161 DAYS OF AGE (S, Route [Inhibitor]: INTRAPERITONEAL, ORAL, Species: MOUSE, Strain/Sex: C3H/MALE, Target Tissue: Type of Lesion: LIVER: ADENOMA, Dose [Carcinogen]: 4 MG/KG IN TRICAPRYLIN ONCE ON DAY 15 OF AGE, Promoter: NONE USED","100%, 97%, 3%, not significant"
same,"tumour outcome (control, treated, inhibition, significance)","Carcinogen: DIETHYLNITROSAMINE, 55-18-5, N-METHYL-N-NITROSOUREA, 684-93-5, N,N'-DIMETHYLHYDRAZINE, 540-73-8, N-BUTYL-N-(4-HYDR, Carcinogen: DIETHYLNITROSAMINE, 55-18-5, N-METHYL-N-NITROSOUREA, 684-93-5, N,N'-DIMETHYLHYDRAZINE, 540-73-8, N-BUTYL-N-(4-HYDR, Dose [Inhibitor]: 0, 200 MG/KG BW IN CORN OIL 3/WK FOR 6 WK BEGINNING POST CARCINOGEN TREATMENT (STUDY DURATION: 28 WK), Route [Inhibitor]: GAVAGE, Species: RAT, Strain/Sex: F344/MALE, Target Tissue: Type of Lesion: KIDNEY: RENAL CELL ADENOMA, Dose [Carcinogen]: 100 MG/KG BW DEN ONCE, 20 MG/KG BW MNU ONCE ON D 2, 5, 8 AND 11, 40 MG/KG BW DMH ON D 14, 17, 20 AND 23, 0.05% BHBN I, Dose [Carcinogen]: 100 MG/KG BW DEN ONCE, 20 MG/KG BW MNU ONCE ON D 2, 5, 8 AND 11, 40 MG/KG BW DMH ON D 14, 17, 20 AND 23, 0.05% BHBN I, Promoter: NONE USED","4/20 (20%), 4/19 (21%), -5%, not significant"
same,"tumour outcome (control, treated, inhibition, significance)","Carcinogen: DIETHYLNITROSAMINE, 55-18-5, N-METHYL-N-NITROSOUREA, 684-93-5, N,N'-DIMETHYLHYDRAZINE, 540-73-8, N-BUTYL-N-(4-HYDR, Carcinogen: DIETHYLNITROSAMINE, 55-18-5, N-METHYL-N-NITROSOUREA, 684-93-5, N,N'-DIMETHYLHYDRAZINE, 540-73-8, N-BUTYL-N-(4-HYDR, Dose [Inhibitor]: 0, 200 MG/KG BW IN CORN OIL 3/WK FOR 6 WK BEGINNING POST CARCINOGEN TREATMENT (STUDY DURATION: 28 WK), Route [Inhibitor]: GAVAGE, Species: RAT, Strain/Sex: F344/MALE, Target Tissue: Type of Lesion: LARGE INTESTINE: ADENOMA, Dose [Carcinogen]: 100 MG/KG BW DEN ONCE, 20 MG/KG BW MNU ONCE ON D 2, 5, 8 AND 11, 40 MG/KG BW DMH ON D 14, 17, 20 AND 23, 0.05% BHBN I, Dose [Carcinogen]: 100 MG/KG BW DEN ONCE, 20 MG/KG BW MNU ONCE ON D 2, 5, 8 AND 11, 40 MG/KG BW DMH ON D 14, 17, 20 AND 23, 0.05% BHBN I, Promoter: NONE USED","6/20 (30%), 1/19 (5%), 83%, not calculated"
same,"tumour outcome (control, treated, inhibition, significance)","Carcinogen: DIETHYLNITROSAMINE, 55-18-5, N-METHYL-N-NITROSOUREA, 684-93-5, N,N'-DIMETHYLHYDRAZINE, 540-73-8, N-BUTYL-N-(4-HYDR, Carcinogen: DIETHYLNITROSAMINE, 55-18-5, N-METHYL-N-NITROSOUREA, 684-93-5, N,N'-DIMETHYLHYDRAZINE, 540-73-8, N-BUTYL-N-(4-HYDR, Dose [Inhibitor]: 0, 200 MG/KG BW IN CORN OIL 3/WK FOR 6 WK BEGINNING POST CARCINOGEN TREATMENT (STUDY DURATION: 28 WK), Route [Inhibitor]: GAVAGE, Species: RAT, Strain/Sex: F344/MALE, Target Tissue: Type of Lesion: LARGE INTESTINE: CARCINOMA, Dose [Carcinogen]: 100 MG/KG BW DEN ONCE, 20 MG/KG BW MNU ONCE ON D 2, 5, 8 AND 11, 40 MG/KG BW DMH ON D 14, 17, 20 AND 23, 0.05% BHBN I, Dose [Carcinogen]: 100 MG/KG BW DEN ONCE, 20 MG/KG BW MNU ONCE ON D 2, 5, 8 AND 11, 40 MG/KG BW DMH ON D 14, 17, 20 AND 23, 0.05% BHBN I, Promoter: NONE USED","8/20 (40%), 7/19 (37%), 8%, not significant"
same,"tumour outcome (control, treated, inhibition, significance)","Carcinogen: DIETHYLNITROSAMINE, 55-18-5, N-METHYL-N-NITROSOUREA, 684-93-5, N,N-DIBUTYLNITROSAMINE, 924-16-3, Carcinogen: DIETHYLNITROSAMINE, 55-18-5, N-METHYL-N-NITROSOUREA, 684-93-5, N,N-DIBUTYLNITROSAMINE, 924-16-3, Dose [Inhibitor]: 0, 0.5% IN DIET BEGINNING POST CARCINOGEN TREATMENT AND CONTINUING TO WK 40 (STUDY DURATION: 40 WK), Route [Inhibitor]: ORAL, Species: RAT, Strain/Sex: F344/MALE, Target Tissue: Type of Lesion: LUNG: ADENOMA, Dose [Carcinogen]: 100 MG/KG DIETHYLNITROSAMINE ONCE FOLLOWED BY 20 MG/KG N-METHYL-N-NITROSOUREA ON D 2, 5, 8 AND 11 THEN 0.05% N-N-DIBUTYL, Promoter: NONE USED","9/16 (56%), 2/18 (11%), 80%, p<0.01"
